# Results published in patent US3930838A, “S-benzyl-N,N-disec-butylthiocarbamate and its use as a rice field herbicide and a rice growth stimulant” (priority 1970, dated 1976).
# Legend:
# Type in all cases: in vivo
# [1] = test system: Echinocloa spp.; test: Post emergence hothouse test No. 2 (Example 16); settings: 4, 6, and 8 kg./ha., 26 days; plants max. 10 cm. at treatment
# Protocol: A set of boxes having a 1,000 cm^2 internal surface was prepared in a hothouse according to the method described in Example 9. The boxes were sowed with Echinocloa spp. (70 seeds per box). After saturation of the soil, and as soon as the infesting plants emerged from the soil, the boxes were flooded with a 7 cm. layer of water. When the plants reached a maximum height of 3-4 cm., the treatment was effected by spraying the flooding water surfaces with hydroacetone solutions according to the modalities employed in Example 9. 3 days after the treatment, the following results were observed:
# A second test was carried out in the same manner as Test No. 1 except that the treatment took place when the infesting plants had reached a maximum of 10 cm. 26 days after such treatment, the following was observed: […]
# [2] = test system: Echinocloa spp.; test: Post emergence hothouse test No. 1 (Example 16); settings: 4, 6, and 8 kg./ha., 3 days; plants 3-4 cm. at treatment
# Protocol: A set of boxes having a 1,000 cm^2 internal surface was prepared in a hothouse according to the method described in Example 9. The boxes were sowed with Echinocloa spp. (70 seeds per box). After saturation of the soil, and as soon as the infesting plants emerged from the soil, the boxes were flooded with a 7 cm. layer of water. When the plants reached a maximum height of 3-4 cm., the treatment was effected by spraying the flooding water surfaces with hydroacetone solutions according to the modalities employed in Example 9. 3 days after the treatment, the following results were observed: […]
# [3] = test system: rice; test: Further test on rice in submerged culture at high doses (Example 8); settings: 33 days
# Protocol: Into a set of cylindrical pots having a 200 cm^2 internal surface, sieved rice field earth in a quantity of 1 kg. per pot was introduced. After leveling and wetting with 200 cc. of water, the earth surface of the pots was uniformly sprayed with hydroacetone solutions containing, respectively, 0, 0.2, 0.3, and 0.4% active product (a.p.). 4 Ml. of the solution were sprayed onto each pot, so that the amount of active product in a set of four pots was 0, 4, 6, and 8 kg./ha., respectively. Immediately after spraying, each pot was filled with water to a level of 7 cm. over the soil surface. Thereafter, the sowing was carried out at the rate of 15 pre-germinated rice seeds per pot. Three repetitions were performed for each treatment. The pots were kept in an air-conditioned atmosphere with a daily temperature variation between 10° and 25°C and a 14 hour per day light period. After 24 days, the percentage of sprouted plants and the length of the shoot were recorded.
# In view of the foregoing results, a further test was conducted according to the methodology of Example 7. During such test, M3432 was employed in quantities of 10, 20, and 30 kg./ha. The results were gathered 33 days after the treatments.
# [4] = test system: rice; test: Outdoor comparison of rice stimulating action of M3432 with lower homologues and isomers (Example 11); settings: 21 days after sowing
# Protocol: In the province of Pavia, a test was carried out with outdoor treatments in a loam soil, on rice plots having a 12 m^2 surface each.
# Formulations of 20% M3432 in emulsifiable oil were compared with 20% formulations in emulsifiable oil of S-benzyl-N,N-diisopropyl thiocarbamate; S-benzyl-N,N-diisobutylthiocarbamate; and S-benzyl-N,N-din.butylthiocarbamate employing quantities of 4, 6 and 20 kg./ha.
# For each treatment, the results were gathered on 20 plants 21 days after the sowing.
compound,measurement,setting,value
"CCC(C)N(C(=O)SCc1ccccc1)C(C)CC (stereo not shown) [M3432, S-benzyl-N,N-disec.butylthiocarbamate]",Shoot,[1],0 cm.
same,Stand,[1],0%
same,Shoot,[2],0 cm.
same,Stand,[2],0%
same,Main root,[3]; 10 kg./ha.,11.3 cm.
same,Secondary roots,[3]; 10 kg./ha.,4.4 number per plant
same,Shoot,[3]; 10 kg./ha.,19.97 cm.
same,Sprouted plants,[3]; 10 kg./ha.,71.1%
same,Main root,[3]; 20 kg./ha.,10.6 cm.
same,Secondary roots,[3]; 20 kg./ha.,5.1 number per plant
same,Shoot,[3]; 20 kg./ha.,20.9 cm.
same,Sprouted plants,[3]; 20 kg./ha.,77.7%
same,Main root,[3]; 30 kg./ha.,11.1 cm.
same,Secondary roots,[3]; 30 kg./ha.,5.4 number per plant
same,Shoot,[3]; 30 kg./ha.,23.4 cm.
same,Sprouted plants,[3]; 30 kg./ha.,80.0%
same,Main roots,[4]; 4 kg./ha.,5.55 No.
same,Secondary roots,[4]; 4 kg./ha.,2.52 No.
same,Shoot,[4]; 4 kg./ha.,7.11 cm.
same,Main roots,[4]; 6 kg./ha.,5.73 No.
same,Secondary roots,[4]; 6 kg./ha.,2.63 No.
same,Shoot,[4]; 6 kg./ha.,7.34 cm.
same,Main roots,[4]; 20 kg./ha.,6.76 No.
same,Secondary roots,[4]; 20 kg./ha.,2.63 No.
same,Shoot,[4]; 20 kg./ha.,7.68 cm.
